Measurements published in US8835124B2, “Method for treating cancer with agents that bind phosphorylated CDC27” (The Nemours Foundation, priority 2011, dated 2014).

System: DAOY cells
Assay: LDH release cytotoxicity assay
Format: cell-based, human
Details: DAOY cells treated for 16 hours
Procedure: Lactate dehydrogenase (LDH) levels as a measure of cell death were determined using the Non-radioactive Cytotoxicity kit (Promega, Madison, Wis.) according to manufacturer's instructions. […] Cell debris was removed by centrifugation. Viable cell LDH was collected from cells lysed by freezing for 15 minutes at −70° C. followed by thawing at 37° C. The medium was collected and cleared from cell debris by centrifugation. The relative release of LDH was determined as the ratio of released LDH versus total LDH from viable cells.
Data represent mean±SEM of three independent experiments.

COc1cc(C=CC(C)=O)ccc1O [half-curcumin, 4-(4-hydroxy-3-methoxyphenyl)-3-buten-2-one]
cell death (LDH release): failed to induce cell death
